Reference: ChEMBL document CHEMBL1201862, “PubChem BioAssay data set” (2004)
The source made the active and inactive calls.

Assays:
Beta-galactosidase [1] = molecular target: T1, Beta-galactosidase (Escherichia coli, UniProt Q8VNN2); test: PubChem AID 485352; assay type: functional
[2] = molecular target: T2, Type-1 angiotensin II receptor (Homo sapiens, UniProt P30556); test: antagonism of angiotensin II type 1 receptor – cell-based, uHTS hits, selectivity assay for APJ receptor antagonist project, dose response (AID 463214); assay type: functional;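 note: antagonist potency against angiotensin II stimulated AT1 response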
T2 sequence (P30556 whole entry): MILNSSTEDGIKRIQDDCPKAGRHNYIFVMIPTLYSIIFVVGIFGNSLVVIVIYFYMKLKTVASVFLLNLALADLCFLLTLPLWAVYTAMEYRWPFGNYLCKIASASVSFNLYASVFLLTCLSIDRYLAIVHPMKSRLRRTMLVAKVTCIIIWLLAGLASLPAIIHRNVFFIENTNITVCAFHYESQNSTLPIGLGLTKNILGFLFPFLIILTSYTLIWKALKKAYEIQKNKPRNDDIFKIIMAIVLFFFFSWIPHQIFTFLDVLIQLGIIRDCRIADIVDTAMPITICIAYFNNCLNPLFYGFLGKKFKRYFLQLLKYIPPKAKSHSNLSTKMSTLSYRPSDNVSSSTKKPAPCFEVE

[3] = molecular target: Voltage-gated inwardly rectifying potassium channel KCNH2 (Homo sapiens, UniProt Q12809); settings: Potency;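 note: confirmatory quantitative high-throughput screen measuring inhibition of hERG channel activity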
Cytochrome P450 3A4 = Cytochrome P450 3A4 (Homo sapiens, UniProt P08684); settings: Potency;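 note: confirmatory qHTS run detecting inhibitors and substrates of CYP3A4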
[4] = molecular target: Serine/threonine-protein phosphatase (Candida dubliniensis (strain CD36 / CBS 7987 / NCPF 3949 / NRRLY-17841) (Yeast), UniProt B9W6M3); test: blockers of CaCl2-induced CDRE-lacZ signaling – S. cerevisiae, luminescence, secondary, dose response (AID 2388); assay type: functional, cell-based;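 note: yeast reporter cells carrying a calcineurin-responsive lacZ construct stimulated with calcium chloride; luminescent beta-galactosidase reporter signal in whole cells rather than isolated phosphatase activity; potency for inhibition where a drop in reporter signal means calcineurin blockade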
[5] = fluconazole-exposed Candida albicans growth modulators – fluorescence, retest, confirmation (AID 2467); assay type: functional, cell-based
[6] = NIH3T3 cell viability loss – ATP luminescence, mouse fibroblasts, counter-screen, dose response (AID 2010); assay type: functional, cell-based;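 note: cells exposed to compound for about 90 hours before reading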
[7] = HEK-293T viability loss after treatment – luminescence, T-cell screen hits, cytotoxicity control for TCR NF-kB inhibitor project, dose response (AID 489026); assay type: functional, cell-based;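 note: cells exposed to compound about 14 hours before the viability readout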
INS1 = test: INS-1E survival protection against cytokine death – cell-based, luminescence, retest, dose response (AID 449756); assay type: functional; settings: Rattus norvegicus;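 note: cell death triggered by IL-1 beta plus TNF-alpha plus IFN-gamma mixture; protective hits raise ATP signal compared with cytokine alone wells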
[8] = NIH-3T3 fibroblast cytotoxicity, dose response, cytotoxicity control, cell-based, fluorescence, Alamar Blue, secondary assay (AID 2327); assay type: functional;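 note: NIH-3T3 mouse fibroblasts cultured with fluconazole at 8 µg/mL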
[9] = molecular target: ATP-dependent molecular chaperone HSP82 (Candida albicans (strain WO-1) (Yeast), UniProt C4YTQ8); test: steroid-induced GRE reporter decrease in yeast – S. cerevisiae, luminescence, Hsp90 inhibitor project, dose response (AID 2400); assay type: functional, cell-based;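 note: beta-galactosidase luminescence from glucocorticoid response element reporter as proxy for Hsp90 function; inhibitor potency where signal loss means Hsp90 inhibition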
[10] = molecular target: T3, COUP transcription factor 2 (Homo sapiens, UniProt P24468); test: Luminescence-based cell-based high throughput dose response assay to identify inhibitors of COUP-TFII (NR2F2).; assay type: functional;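 note: HEK293 cells transiently cotransfected with COUP-TFII expression vector and reporter; luciferase reporter luminescence driven by COUP-TFII from the pX2-168 reporter plasmid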
T3 sequence (P24468 whole entry): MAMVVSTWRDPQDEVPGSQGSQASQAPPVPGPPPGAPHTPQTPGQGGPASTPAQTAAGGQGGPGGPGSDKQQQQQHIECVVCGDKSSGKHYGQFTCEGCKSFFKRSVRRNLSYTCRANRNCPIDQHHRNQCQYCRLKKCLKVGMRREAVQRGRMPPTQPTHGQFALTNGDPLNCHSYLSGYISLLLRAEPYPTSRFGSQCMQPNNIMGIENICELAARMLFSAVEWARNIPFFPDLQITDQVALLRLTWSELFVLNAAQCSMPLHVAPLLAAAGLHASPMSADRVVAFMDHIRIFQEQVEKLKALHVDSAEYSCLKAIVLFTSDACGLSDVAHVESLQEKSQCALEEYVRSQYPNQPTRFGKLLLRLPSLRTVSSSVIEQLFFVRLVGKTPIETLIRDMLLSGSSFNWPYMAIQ

[11] = molecular target: T4, Microphthalmia-associated transcription factor (Homo sapiens, UniProt O75030); test: reducers of TRPM1 reporter luminescence, concentration series – cell-based, SK-MEL-5, cherry-picked, set 3, MITF inhibitor project, dose response (AID 493073); assay type: functional;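 note: SK-MEL-5 melanoma cells with luciferase driven by the MITF target TRPM1 promoter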
T4 sequence (O75030 whole entry): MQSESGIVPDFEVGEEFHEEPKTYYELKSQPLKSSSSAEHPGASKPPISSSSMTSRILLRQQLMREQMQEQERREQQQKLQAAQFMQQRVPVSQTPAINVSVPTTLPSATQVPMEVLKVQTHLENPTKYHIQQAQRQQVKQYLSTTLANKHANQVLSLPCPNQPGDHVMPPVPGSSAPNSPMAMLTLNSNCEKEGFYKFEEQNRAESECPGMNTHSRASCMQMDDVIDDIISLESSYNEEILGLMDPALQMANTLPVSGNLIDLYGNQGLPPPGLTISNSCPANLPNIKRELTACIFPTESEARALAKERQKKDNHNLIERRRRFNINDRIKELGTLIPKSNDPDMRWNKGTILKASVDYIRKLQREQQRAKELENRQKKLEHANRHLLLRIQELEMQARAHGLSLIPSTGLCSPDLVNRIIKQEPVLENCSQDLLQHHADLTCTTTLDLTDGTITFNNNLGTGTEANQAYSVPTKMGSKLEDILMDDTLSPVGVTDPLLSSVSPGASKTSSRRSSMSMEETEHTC

[12] = Trypanosoma cruzi growth suppression in host cells – NIH3T3 host cells, beta-gal luminescence, confirmation (AID 2044); assay type: functional, cell-based;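 note: intracellular parasites grown in NIH/3T3 mouse fibroblasts as host cells; luminescent beta-galactosidase reporter signal from transgenic T. cruzi replicating inside host cells; inhibitors lower the luminescence signal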
Hexokinase HKDC1 = molecular target: T5, Hexokinase HKDC1 (Homo sapiens, UniProt Q2TB90); test: inhibition of HKDC1 glucose phosphorylation – biochemical, W721R variant, dose response (AID 504729); assay type: functional
T5 sequence (Q2TB90 whole entry): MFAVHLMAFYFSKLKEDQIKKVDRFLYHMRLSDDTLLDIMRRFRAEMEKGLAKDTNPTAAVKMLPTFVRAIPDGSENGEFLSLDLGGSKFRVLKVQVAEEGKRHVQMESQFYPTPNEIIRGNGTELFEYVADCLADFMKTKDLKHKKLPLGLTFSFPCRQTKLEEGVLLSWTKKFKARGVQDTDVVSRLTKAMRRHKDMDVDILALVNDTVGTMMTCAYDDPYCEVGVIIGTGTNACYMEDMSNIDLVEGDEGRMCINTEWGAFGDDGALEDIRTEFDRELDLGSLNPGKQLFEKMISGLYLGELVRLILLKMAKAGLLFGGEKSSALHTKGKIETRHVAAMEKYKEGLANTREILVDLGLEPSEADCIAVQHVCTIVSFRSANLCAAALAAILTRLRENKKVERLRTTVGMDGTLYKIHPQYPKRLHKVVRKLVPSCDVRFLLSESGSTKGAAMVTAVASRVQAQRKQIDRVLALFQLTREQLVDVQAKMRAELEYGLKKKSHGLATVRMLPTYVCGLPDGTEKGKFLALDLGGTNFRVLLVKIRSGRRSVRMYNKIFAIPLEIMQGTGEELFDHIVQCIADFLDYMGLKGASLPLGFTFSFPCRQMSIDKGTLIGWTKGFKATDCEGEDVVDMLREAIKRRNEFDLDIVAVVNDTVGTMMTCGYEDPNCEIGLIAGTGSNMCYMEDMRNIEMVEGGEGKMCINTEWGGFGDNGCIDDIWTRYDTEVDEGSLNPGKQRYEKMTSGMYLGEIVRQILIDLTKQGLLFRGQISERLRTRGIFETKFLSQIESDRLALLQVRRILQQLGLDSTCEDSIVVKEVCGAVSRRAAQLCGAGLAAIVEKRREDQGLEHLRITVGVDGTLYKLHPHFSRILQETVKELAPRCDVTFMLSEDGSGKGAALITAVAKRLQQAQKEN

[13] = molecular target: T6, Mitochondrial peptide methionine sulfoxide reductase (Bos taurus, UniProt P54149); test: Absorbance-based biochemical high throughput dose response assay for activators of Methionine sulfoxide reductase A (MsrA).; assay type: functional
T6 sequence (P54149 whole entry): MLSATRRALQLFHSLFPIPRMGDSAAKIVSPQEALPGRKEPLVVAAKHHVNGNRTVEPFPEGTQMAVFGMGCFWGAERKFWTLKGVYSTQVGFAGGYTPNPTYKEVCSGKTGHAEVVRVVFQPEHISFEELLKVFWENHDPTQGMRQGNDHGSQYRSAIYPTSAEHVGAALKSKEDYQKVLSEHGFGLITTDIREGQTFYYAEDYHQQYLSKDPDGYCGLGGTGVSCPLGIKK

[14] = viability loss in THP-1 monocytes – THP-1 cells, cytotoxicity control for Vif-APOBEC3G degradation inhibitor project, dose response (AID 1117359); assay type: functional; settings: THP-1
[15] = general cell-killing toxicity readout – plate reader, dry powder samples, cytotoxicity control for PAX8 inhibitor project, dose response (AID 743021); assay type: functional, cell-based
Beta-galactosidase [16] = molecular target: T1, Beta-galactosidase; test: detection-enzyme interference by beta-gal modulators – biochemical, E. coli enzyme, set 3, artefact control for CCR6 antagonist project, dose response (AID 504712); assay type: functional
Vero = test: viability of Vero cells under compound – cytotoxicity control for flavivirus capping enzyme inhibitors (AID 588742); assay type: functional; settings: Chlorocebus sabaeus
[17] = molecular target: Glucose-6-phosphate 1-dehydrogenase (Homo sapiens, UniProt P11413); test: inhibition of Homo sapiens G6PD, dose series – biochemical, fluorescence, selectivity assay for P. falciparum G6PD inhibitor project, dose response (AID 504792); assay type: functional
[18] = Fluorescence-based cell-based high throughput dose response assay for inhibitors of the interaction of nucleotide-binding oligomerization domain containing 2 (NOD2) and the receptor-interacting serine-threonine kinase 2 (RIPK2).; assay type: functional; settings: Homo sapiens
[19] = molecular target: T7, Tyrosyl-DNA phosphodiesterase 2 (Homo sapiens, UniProt O95551); test: potency against TDP2 phosphodiesterase activity – biochemical, epi absorbance, IC50, dose response (AID 743297)
T7 sequence (O95551 whole entry): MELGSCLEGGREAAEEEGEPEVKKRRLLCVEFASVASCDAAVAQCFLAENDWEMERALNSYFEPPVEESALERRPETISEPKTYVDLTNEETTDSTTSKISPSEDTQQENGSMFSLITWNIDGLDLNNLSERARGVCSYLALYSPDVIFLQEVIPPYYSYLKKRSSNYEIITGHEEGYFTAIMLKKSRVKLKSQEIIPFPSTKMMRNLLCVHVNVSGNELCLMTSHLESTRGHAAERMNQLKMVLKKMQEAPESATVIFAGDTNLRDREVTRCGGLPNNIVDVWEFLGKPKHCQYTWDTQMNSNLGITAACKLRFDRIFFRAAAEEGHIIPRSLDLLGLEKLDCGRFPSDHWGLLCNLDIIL

[20] = molecular target: T8, C-C chemokine receptor type 6 (Homo sapiens, UniProt P51684); test: antagonism of CCR6 beta-arrestin recruitment – cell-based, luminescent beta-arrestin readout, dose response (AID 504728); assay type: functional
T8 sequence (P51684 whole entry): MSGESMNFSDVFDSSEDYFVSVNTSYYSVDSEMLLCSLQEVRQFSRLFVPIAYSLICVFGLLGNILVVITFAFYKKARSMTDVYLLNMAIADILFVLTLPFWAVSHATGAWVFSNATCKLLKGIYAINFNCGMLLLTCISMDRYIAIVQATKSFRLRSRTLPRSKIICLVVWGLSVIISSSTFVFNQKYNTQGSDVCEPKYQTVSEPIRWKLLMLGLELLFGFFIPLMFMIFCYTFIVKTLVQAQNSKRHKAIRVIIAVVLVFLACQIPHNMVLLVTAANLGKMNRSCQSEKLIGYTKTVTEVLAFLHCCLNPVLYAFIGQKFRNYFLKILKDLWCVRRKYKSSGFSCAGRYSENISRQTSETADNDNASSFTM

Genome polyprotein = Genome polyprotein (dengue virus type 2, UniProt P29990); test: flavivirus cap methylation enzyme inhibition – biochemical, confirmation dose response, primary screen (AID 588689); assay type: functional
Paired box protein Pax-8 = Paired box protein Pax-8 (Homo sapiens, UniProt Q06710); test: PAX8 transcriptional activity inhibition in RMG-I – RMG-I cells, luciferase, cherry-pick, dose response (AID 687027); assay type: functional, cell-based;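 note: luciferase reporter driven by Pax8 target thyroperoxidase promoter measured by SteadyGlo luminescence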
Paired box protein Pax-8, sequence (Q06710 whole entry): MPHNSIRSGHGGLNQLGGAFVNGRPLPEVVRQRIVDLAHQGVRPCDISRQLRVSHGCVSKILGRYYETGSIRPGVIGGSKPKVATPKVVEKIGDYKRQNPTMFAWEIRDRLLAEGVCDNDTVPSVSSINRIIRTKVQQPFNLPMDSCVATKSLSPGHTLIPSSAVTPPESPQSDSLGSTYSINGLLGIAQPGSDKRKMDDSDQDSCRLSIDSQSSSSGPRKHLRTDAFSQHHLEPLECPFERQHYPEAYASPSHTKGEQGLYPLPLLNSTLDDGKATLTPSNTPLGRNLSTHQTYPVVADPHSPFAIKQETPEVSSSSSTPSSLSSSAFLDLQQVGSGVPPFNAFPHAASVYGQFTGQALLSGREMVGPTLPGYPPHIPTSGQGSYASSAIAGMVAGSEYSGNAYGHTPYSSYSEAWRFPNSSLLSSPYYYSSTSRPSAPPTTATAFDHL

T1 sequence (Q8VNN2 whole entry): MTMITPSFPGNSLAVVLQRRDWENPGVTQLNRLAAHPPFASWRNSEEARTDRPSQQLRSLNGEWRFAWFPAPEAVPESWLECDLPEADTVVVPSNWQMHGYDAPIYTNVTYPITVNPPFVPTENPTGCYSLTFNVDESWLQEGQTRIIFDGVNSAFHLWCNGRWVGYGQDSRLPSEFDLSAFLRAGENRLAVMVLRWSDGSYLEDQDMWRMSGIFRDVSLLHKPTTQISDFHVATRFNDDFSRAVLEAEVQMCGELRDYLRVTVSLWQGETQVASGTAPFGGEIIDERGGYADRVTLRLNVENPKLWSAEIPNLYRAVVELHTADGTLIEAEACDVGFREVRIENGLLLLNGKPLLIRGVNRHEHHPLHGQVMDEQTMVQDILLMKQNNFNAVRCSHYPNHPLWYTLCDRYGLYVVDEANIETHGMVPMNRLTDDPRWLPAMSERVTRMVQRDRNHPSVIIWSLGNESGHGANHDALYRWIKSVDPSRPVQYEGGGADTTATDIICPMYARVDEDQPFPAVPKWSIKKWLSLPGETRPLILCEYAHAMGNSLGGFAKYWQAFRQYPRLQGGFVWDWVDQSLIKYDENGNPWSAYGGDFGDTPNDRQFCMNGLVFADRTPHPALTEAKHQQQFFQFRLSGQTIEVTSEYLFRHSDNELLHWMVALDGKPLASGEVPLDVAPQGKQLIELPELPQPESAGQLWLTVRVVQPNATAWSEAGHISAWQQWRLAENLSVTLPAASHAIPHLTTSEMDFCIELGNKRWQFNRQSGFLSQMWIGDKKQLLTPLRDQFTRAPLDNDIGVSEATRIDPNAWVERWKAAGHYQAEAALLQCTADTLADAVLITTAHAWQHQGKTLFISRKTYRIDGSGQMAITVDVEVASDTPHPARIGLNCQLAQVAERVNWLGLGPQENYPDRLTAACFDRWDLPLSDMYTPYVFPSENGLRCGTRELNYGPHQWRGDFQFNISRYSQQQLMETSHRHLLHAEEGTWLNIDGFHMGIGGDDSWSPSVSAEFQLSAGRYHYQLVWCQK
Serine/threonine-protein phosphatase, sequence (B9W6M3 whole entry): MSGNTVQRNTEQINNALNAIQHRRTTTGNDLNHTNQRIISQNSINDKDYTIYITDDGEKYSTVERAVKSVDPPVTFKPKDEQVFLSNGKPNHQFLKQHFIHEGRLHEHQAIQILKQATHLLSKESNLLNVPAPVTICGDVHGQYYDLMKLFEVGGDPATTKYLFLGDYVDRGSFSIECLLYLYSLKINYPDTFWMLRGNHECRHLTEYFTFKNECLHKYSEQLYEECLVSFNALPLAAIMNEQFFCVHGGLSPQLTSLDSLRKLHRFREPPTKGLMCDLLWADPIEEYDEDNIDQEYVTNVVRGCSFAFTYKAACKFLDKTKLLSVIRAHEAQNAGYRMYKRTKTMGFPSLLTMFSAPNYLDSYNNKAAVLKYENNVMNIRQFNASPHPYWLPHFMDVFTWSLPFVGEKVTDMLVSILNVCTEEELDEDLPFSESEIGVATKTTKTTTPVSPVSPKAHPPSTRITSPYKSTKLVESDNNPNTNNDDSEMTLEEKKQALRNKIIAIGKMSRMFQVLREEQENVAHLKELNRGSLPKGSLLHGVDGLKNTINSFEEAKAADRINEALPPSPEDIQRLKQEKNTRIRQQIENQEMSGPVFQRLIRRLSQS
Genome polyprotein, sequence (P29990 2492-3391 limits assumed): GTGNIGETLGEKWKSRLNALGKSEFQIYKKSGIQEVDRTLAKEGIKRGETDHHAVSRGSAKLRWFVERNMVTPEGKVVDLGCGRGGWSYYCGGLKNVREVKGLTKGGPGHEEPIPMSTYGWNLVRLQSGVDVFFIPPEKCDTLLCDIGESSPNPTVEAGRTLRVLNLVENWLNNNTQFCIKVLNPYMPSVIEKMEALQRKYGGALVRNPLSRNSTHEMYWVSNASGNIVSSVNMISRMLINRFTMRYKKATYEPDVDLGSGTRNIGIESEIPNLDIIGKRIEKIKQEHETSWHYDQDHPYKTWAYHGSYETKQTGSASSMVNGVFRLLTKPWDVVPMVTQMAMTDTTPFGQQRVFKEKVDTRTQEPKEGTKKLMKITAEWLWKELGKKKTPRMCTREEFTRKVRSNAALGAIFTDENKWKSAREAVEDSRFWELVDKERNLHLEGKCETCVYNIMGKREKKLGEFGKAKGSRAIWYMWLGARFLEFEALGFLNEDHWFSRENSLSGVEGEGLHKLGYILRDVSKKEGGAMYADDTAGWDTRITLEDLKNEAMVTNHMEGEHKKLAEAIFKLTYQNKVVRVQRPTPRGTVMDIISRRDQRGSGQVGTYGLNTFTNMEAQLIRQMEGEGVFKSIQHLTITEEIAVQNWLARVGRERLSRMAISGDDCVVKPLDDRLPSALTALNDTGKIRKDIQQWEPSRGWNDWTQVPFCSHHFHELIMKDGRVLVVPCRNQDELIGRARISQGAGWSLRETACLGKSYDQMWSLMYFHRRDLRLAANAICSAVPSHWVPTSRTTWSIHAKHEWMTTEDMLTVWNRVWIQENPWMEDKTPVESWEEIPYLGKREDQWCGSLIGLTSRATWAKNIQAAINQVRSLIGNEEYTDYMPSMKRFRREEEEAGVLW
Glucose-6-phosphate 1-dehydrogenase, sequence (P11413 whole entry, the tested form may be a part): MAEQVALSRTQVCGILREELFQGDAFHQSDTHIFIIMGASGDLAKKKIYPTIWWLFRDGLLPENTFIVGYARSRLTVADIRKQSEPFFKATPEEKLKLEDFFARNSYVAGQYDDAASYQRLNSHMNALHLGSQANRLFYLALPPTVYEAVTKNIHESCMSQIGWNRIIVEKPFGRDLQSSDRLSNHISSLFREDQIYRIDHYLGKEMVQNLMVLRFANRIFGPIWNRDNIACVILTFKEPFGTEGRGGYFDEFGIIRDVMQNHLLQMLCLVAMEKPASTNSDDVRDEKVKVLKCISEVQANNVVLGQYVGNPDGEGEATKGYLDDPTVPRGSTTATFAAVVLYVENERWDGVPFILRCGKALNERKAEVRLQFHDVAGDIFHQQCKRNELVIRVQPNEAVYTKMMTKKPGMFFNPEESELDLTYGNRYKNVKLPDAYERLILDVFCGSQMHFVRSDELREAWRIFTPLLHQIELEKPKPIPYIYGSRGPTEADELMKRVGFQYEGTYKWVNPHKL
Voltage-gated inwardly rectifying potassium channel KCNH2, sequence (Q12809 whole entry): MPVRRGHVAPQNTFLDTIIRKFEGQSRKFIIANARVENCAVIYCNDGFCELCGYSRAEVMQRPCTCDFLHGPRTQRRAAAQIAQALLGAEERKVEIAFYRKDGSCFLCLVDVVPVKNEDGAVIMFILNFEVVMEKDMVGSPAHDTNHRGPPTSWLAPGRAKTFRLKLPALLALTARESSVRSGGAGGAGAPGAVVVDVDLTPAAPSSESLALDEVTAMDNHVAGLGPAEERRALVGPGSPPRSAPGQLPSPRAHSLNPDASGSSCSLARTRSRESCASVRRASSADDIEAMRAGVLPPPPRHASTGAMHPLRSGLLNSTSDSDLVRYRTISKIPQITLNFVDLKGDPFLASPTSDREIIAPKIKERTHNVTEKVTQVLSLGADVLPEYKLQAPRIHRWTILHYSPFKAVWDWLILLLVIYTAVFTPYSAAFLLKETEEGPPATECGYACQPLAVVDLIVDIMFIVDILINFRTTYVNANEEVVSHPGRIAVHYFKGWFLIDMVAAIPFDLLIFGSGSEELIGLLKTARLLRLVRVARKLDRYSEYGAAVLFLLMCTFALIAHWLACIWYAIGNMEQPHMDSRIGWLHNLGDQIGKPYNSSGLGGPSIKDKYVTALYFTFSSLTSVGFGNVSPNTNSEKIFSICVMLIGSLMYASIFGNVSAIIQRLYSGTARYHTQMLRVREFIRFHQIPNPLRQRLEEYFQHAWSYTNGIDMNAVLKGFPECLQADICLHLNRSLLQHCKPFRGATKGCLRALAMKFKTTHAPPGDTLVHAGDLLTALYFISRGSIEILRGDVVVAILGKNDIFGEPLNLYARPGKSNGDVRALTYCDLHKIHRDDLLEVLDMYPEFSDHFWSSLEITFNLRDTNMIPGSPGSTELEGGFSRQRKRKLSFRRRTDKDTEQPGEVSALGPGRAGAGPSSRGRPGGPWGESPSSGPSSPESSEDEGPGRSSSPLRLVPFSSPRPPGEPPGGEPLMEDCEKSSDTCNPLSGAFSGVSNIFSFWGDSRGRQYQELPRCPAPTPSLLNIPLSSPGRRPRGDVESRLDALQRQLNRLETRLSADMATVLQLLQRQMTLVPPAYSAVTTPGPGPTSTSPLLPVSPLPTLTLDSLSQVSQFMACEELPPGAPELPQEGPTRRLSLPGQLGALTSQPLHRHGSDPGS

Compound: CCC1CCCCN1CC(=O)c1ccc(OC(F)F)cc1 (stereo unspecified)
- EC50 (Beta-galactosidase [1]): > 40 µM (inactive)
- IC50 [2]: > 40 µM (not active)

Compound: CCC(=O)/C=C/C1C(C)=CCCC1(C)C (stereo unspecified)
- AC50 [3]: 39.8 µM (inconclusive)
- AC50 (Cytochrome P450 3A4): 31.6 µM (inconclusive)

Compound: COc1ccc(-[n+]2cc(-c3ccc(C)cc3)n3c2SCC3)cc1
- EC50 [4]: > 180 µM (inactive)
- EC50 [5]: 1.17 µM (active)
- EC50 [6]: > 60 µM (not active)
- IC50 [7]: > 80 µM (inactive)
- AC50 (INS1): 1.12 µM (active)
- EC50 [8]: > 150 µM (inactive)
- EC50 [9]: > 150 µM (inactive)
- IC50 [10]: 7.65 µM (active)
- AC50 [11]: 2.91 µM (active)
- EC50 [12]: 0.318 µM (active)

Compound: O=C(NC1=CC(=O)c2ccccc2C1=O)c1ccccc1
- IC50 (Hexokinase HKDC1): 3.09 µM (active)
- EC50 [13]: 34.1 µM (inactive)
- CC50 [14]: 2.65 µM (active)
- AC50 [15]: 24.2 µM (active)
- IC50 (Beta-galactosidase [16]): > 66.6 µM (inactive)
- CC50 (Vero): 15.2 µM (active)
- IC50 [17]: 35.7 µM (inactive)
- IC50 [18]: 2.06 µM (active)
- IC50 [19]: 11.7 µM (inactive)
- IC50 [20]: > 66.6 µM (inactive)
- IC50 (Genome polyprotein): 18.5 µM (active)
- AC50 (Paired box protein Pax-8): 4.43 µM (active)
